Data as given in the SangsterLogP compilation.

Assay: method code SF, from Hansch, C. & Leo, A. (1987). Log P database [Dataset]. Pomona College Medicinal Chemistry Project.

## O=c1[nH]c(=O)n([C@H]2C[C@H](O)[C@@H](CO)O2)cc1Br
  logP: -0.29

## CC(=O)Oc1ccccc1C#N
  logP: 1.33

## CNC(=O)C=C(C)OP(=O)(OC)OC
  logP: -0.2

## CCCOC(=O)c1cccnc1
pH 7.0
  logD: 1.94

## CCCCOc1cccc(C=C(C(=O)OCC)C(=O)OCC)c1
  logP: 4.03

## Cn1ncc2cc([N+](=O)[O-])cc([N+](=O)[O-])c21
  logP: 1.63

## CC1CCCN(N=O)C1=O (stereo unspecified)
  logP: -0.66

## CCOC(=O)C(=Cc1ccccc1Cl)C(=O)OCC
  logP: 3.15

## CCCCCCCCC1OC(=O)c2ccccc21 (stereo unspecified)
  logP: 3.94

## CN(C(=O)COc1ccccc1)c1ccccc1
  logP: 2.25

## Cc1ccc(C(N)=O)cc1
  logP: 1.18

## CC(C)Oc1ccccc1O
  logP: 2.09

## OCCCCCl
  logP: 0.85

## CON=C(C(=O)NC1C(=O)N2C(C(=O)OCOC(=O)C(C)(C)C)=C(CSc3nnnn3C)CSC12)c1csc(N)n1 (stereo unspecified)
pH 6.6
  logD: 1.74

## Oc1ccnc2cc(C(F)(F)F)ccc12
  logP: 2.05

## CC(C)(C)C(=O)Nc1ccccc1
  logP: 1.99

## CN(C(=O)CCI)c1ccc(S(=O)(=O)N(C)C)cc1
  logP: 1.39

## FC(F)(F)C(F)(F)C(F)(F)C(F)(F)C(F)(F)F
  logP: 4.4

## CC(C)(C)c1ccc(C(N)=O)cc1
  logP: 2.51

## CCCCC(=Cc1ccccc1)C(=O)NC(C)CC (stereo unspecified)
  logP: 4.07

## CC(=O)c1csc2ccccc12
  logP: 2.78

## NC(=O)c1ccc(I)cc1
  logP: 1.99

## CCc1ccc2c(c1)N=C(C)NS2(=O)=O
  logP: 1.25

## CC1CCC(=O)CC1
  logP: 1.38

## O=C(O)CCl
  logP: 0.22

## O=S1(=O)N=C(C2CC=CCC2)Nc2ccccc21 (stereo unspecified)
  logP: 2.05

## COC(=O)C(=Cc1ccccc1)C(=O)OC
  logP: 2.24

## CC(C)NCc1cccnc1
pH 11.0
  logD: 0.82

## O=S(=O)(Nc1cn[nH]c1)c1ccccc1
  logP: 0.87

## c1ccc(-c2cccs2)cc1
  logP: 3.74

## c1ccc(Cc2nn[nH]n2)cc1
pH 2.2
  logD: 1.36

## CC1(C)Oc2c(O)cccc2C1=O
  logP: 1.87

## CCn1c(=O)c(N(C)C)c(C)n(-c2ccccc2)c1=O
pH 7.4
  logD: 2.29

## CNc1nc2ccccc2o1
  logP: 1.82

## CC(=O)Oc1ccccc1C
  logP: 1.93

## CCc1ccccc1OC(C)=O
  logP: 2.42

## ClC(Cl)=C(Cl)Cl
  logP: 3.4

## C=CC(N)=O
  logP: -0.67

## CCCC1CC(C(=O)NC(C(C)Cl)C2OC(SCC)C(O)C(O)C2O)N(CC)C1 (stereo unspecified)
pH 12.0
  logD: 3.18

## CCOC(=O)C(=Cc1cccc([N+](=O)[O-])c1)C(=O)OCC
  logP: 2.71

## Nc1cc(OCC(=O)O)ccc1Cl
  logP: 1.16

## Cc1c(N2CCOCC2)c(=O)n(-c2ccccc2)c(=O)n1C
pH 7.4
  logD: 0.69

## COC(=O)CNC(=O)c1ccc(N)cc1
  logP: -0.23

## O=c1[nH]nc(Sc2ccccc2)[nH]1
  logP: 1.46

## NC1=Nc2cc(Cl)ccc2S(=O)(=O)N1
  logP: 0.91

## CCOP(=O)(OCC)OCC
  logP: 0.8

## O=NN(CCF)C(=O)NCCCl
  logP: 0.95

## CCOC(=O)c1ccncc1
  logP: 1.43

## O=[N+]([O-])c1ccc2[nH]c(CCCCCCc3nc4cc([N+](=O)[O-])ccc4[nH]3)nc2c1
  logP: 1.51

## c1ccc2nc3ccccc3nc2c1
  logP: 2.84

## NC(=O)c1ccc(F)cc1
  logP: 0.91

## C=C(Cl)Cl
  logP: 2.13

## NC(=O)Nc1ccc(C(O)C(CO)NC(=O)C(Cl)Cl)cc1 (stereo unspecified)
  logP: -0.6

## CC(=O)C(=Cc1ccccc1Cl)C(C)=O
  logP: 2.19

## CN(C)/N=N/c1ccccc1C(=O)NNC(=O)CC#N
  logP: 1.44

## CNP(=O)(OC)Oc1ccc(C(C)(C)C)cc1 (stereo unspecified)
  logP: 2.71

## CCCCCC(=O)Nc1ccccc1
  logP: 3.28

## CCOCOCC
  logP: 0.84

## O=c1cccccc1O
pH 5.0
  logD: 0.75

## COc1cc(Cl)cc(Cl)c1
  logP: 3.74

## O=C(CCl)Nc1ccccc1
  logP: 1.63

## CC(=O)Nc1cccc(OCc2cccc(N3C(N)=NC(N)=NC3(C)C)c2)c1
pH 13.0
  logD: 1.15

## CC(=O)NC1CCSC1=O (stereo unspecified)
  logP: -0.35

## O=C1c2ccccc2-c2ccccc21
  logP: 3.58

## O=CNc1ccccc1
  logP: 1.2

## Cc1cc(C(=O)NNCc2ccccc2)no1
pH 7.4
  logD: 1.49
